Test results reported in patent US8066980B2, “Osteogenic synthetic peptides, pharmaceutical compositions comprising the same, and medium containing the same” (Industry Foundation of Chonnam National University, priority 2008, dated 2011).
Where a SMILES comes first, the peptide text is derived from it.

Columns and labels:
cells = assay: MTT assay for cytotoxicity; assay type: cell-based; details: within a range of used concentrations
surface marker CD44 = assay: Fluorescence microscopy of surface marker CD44; assay type: cell-based, mouse; details: at the same concentrations
Excerpt: The effects of BFP 1 and BFP 2 on the expression of the surface marker CD44 were observed under a fluorescence microscope and the results are given in FIGS. 10a and 10b.
During differentiation, the cells were stained with DAPI, a fluorescent stain that easily binds to the DNA of living cells, and with a PE(phycoerythrin)-conjugated-CD44 antibody.

`CC(C)[C@H](NC(=O)[C@H](C)NC(=O)[C@H](CCCCN)NC(=O)[C@H](Cc1ccc(O)cc1)NC(=O)[C@@H]1CCCN1C(=O)[C@H](Cc1ccc(O)cc1)NC(=O)[C@H](CO)NC(=O)[C@H](Cc1ccccc1)NC(=O)CNC(=O)[C@H](CCC(N)=O)NC(=O)CN)C(=O)N[C@@H](Cc1ccccc1)C(=O)N[C@@H](CO)C(=O)N[C@H](C(=O)N[C@@H](CCC(N)=O)C(=O)O)[C@@H](C)O` [BFP 1, Gly-Gln-Gly-Phe-Ser-Tyr-Pro-Tyr-Lys-Ala-Val-Phe-Ser-Thr-Gln] (H-GQGFSYPYKAVFSTQ-OH) was tested, and the “cytotoxicity (MTT assay)” value (cells) was “neither BFP 1 nor BFP 2 are toxic to cells”.

`CC(C)[C@H](N)C(=O)N[C@@H](CCC(=O)O)C(=O)N[C@@H](Cc1c[nH]cn1)C(=O)N[C@@H](CC(=O)O)C(=O)N[C@@H](CCCCN)C(=O)N[C@@H](CCC(=O)O)C(=O)N[C@@H](Cc1ccccc1)C(=O)N[C@@H](Cc1ccccc1)C(=O)N[C@@H](Cc1c[nH]cn1)C(=O)N1CCC[C@H]1C(=O)N[C@@H](CCCNC(=N)N)C(=O)N[C@@H](Cc1ccc(O)cc1)C(=O)N[C@@H](Cc1c[nH]cn1)C(=O)N[C@@H](Cc1c[nH]cn1)C(=O)N[C@@H](CCCNC(=N)N)C(=O)O` [BFP 2, Val-Glu-His-Asp-Lys-Glu-Phe-Phe-His-Pro-Arg-Tyr-His-His-Arg] (H-VEHDKEFFHPRYHHR-OH) was tested, and the “cytotoxicity (MTT assay)” value (cells) was “neither BFP 1 nor BFP 2 are toxic to cells”.

B1: BMP-7: bone morphogenetic protein-7, known as an osteogenesis promoter; comparator (protein, UniProt P18075 293-431, looked up)
Bone morphogenetic protein 7: STGSKQRSQNRSKTPKNQEALRMANVAENSSSDQRQACKKHELYVSFRDLGWQDWIIAPEGYAAYYCEGECAFPLNSYMNATNHAIVQTLVHFINPETVPKPCCAPTQLNAISVLYFDDSSNVILKKYRNMVVRACGCH
For B1, the “CD44 staining intensity compared with BFP 1 or BFP 2” value (surface marker CD44) was “less intense staining”.
